According to paper PMC6465078 (Molecular pharmaceutics, 2018):
Where a name gives a salt, the structure may show the parent alone. Blank lines part the entries; values can stand above or below the compound they belong to.

How the values were obtained:
OSTα/β [1] = target: T1, OSTα/β (Homo sapiens, UniProt Q86UW1); test: Inhibition of OSTα/β-mediated DHEAS uptake in OSTα/β-overexpressing Flp-In 293; assay type: cell-based; details: for Inhibition of OSTα/β-mediated DHEAS uptake (screening): Method 1 (10 min preincubation), test compound 100 µM; for Maximal inhibition of OSTα/β-mediated DHEAS uptake: Method 1, up to 200 µM inhibitor; for Inhibition of OSTα/β-mediated DHEAS uptake: inhibitor 100 µM, DHEAS 20 µM
T1 sequence (Q86UW1 1-340): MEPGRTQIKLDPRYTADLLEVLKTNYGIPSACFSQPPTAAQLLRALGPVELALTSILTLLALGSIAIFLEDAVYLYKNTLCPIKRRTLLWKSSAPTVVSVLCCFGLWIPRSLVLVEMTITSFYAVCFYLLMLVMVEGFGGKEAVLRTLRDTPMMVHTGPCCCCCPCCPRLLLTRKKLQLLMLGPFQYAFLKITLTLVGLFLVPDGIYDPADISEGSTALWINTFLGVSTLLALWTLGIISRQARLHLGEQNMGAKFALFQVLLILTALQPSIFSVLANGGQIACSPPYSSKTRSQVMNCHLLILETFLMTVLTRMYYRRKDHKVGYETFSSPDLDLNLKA
T1 sequence (Q86UW2 1-128 partner): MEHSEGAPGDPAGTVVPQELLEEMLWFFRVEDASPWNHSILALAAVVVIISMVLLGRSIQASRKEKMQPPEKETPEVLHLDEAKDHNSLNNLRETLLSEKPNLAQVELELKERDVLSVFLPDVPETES

OSTα/β [2] = details: cited from earlier work
[3] = cited from earlier work
[4] = Concentration in hepatocyte cultures; assay type: in vitro ADME; details: equivalent of ~700 ng/mg protein
OSTα/β [5] = target: T1, OSTα/β; details: cell line ectopically expressing human OSTα/β; cited from earlier work
[6] = cited from earlier work; remark: listed apart in the source
ABCB11 = details: cited from earlier work
ABCC4 = details: cited from earlier work
ABCC3 = details: cited from earlier work
OSTα/β [7] = target: T1, OSTα/β; test: Inhibition of OSTα/β-mediated taurocholate; assay type: cell-based; details: for Inhibition of OSTα/β-mediated TCA uptake (statistical significance): Methods 1-3, method not specified; for inhibition at 100 µM: read-out: Inhibition of OSTα/β-mediated TCA uptake
OSTα/β [8] = details: single concentration of 100–1000 μM; cited from earlier work
OSTα/β [9] = target: T1, OSTα/β; test: Inhibition of OSTα/β-mediated digoxin uptake in OSTab cells; assay type: cell-based; details: read-out: Inhibition of OSTα/β-mediated digoxin uptake
[10] = Flp-In-293, read-out: Inhibition of OSTα/β-mediated DHEAS uptake (screening)
[11] = Flp-In-293, read-out: Inhibition of OSTα/β-mediated DHEAS uptake
[12] = Method 2 (co-incubation only), 30 s uptake

Compound: C[C@H]1O[C@@H](O[C@H]2[C@@H](O)C[C@H](O[C@H]3[C@@H](O)C[C@H](O[C@H]4CC[C@@]5(C)[C@H](CC[C@@H]6[C@@H]5C[C@@H](O)[C@]5(C)[C@@H](C7=CC(=O)OC7)CC[C@]65O)C4)O[C@@H]3C)O[C@@H]2C)C[C@H](O)[C@@H]1O [digoxin]
- inhibition at 100 µM (OSTα/β [1]; [10]): 5 to 23%

Compound: CC(C)/N=c1\cc2n(-c3ccc(Cl)cc3)c3ccccc3nc-2cc1Nc1ccc(Cl)cc1 [clofazimine]
- OSTα/β inhibitor identification in screen of 1,280 FDA-approved drugs (OSTα/β [2]): OSTα/β inhibitor

Compound: O=C1OC(c2ccc(O)c(S(=O)(=O)O)c2)(c2ccc(O)c(S(=O)(=O)O)c2)c2c(Br)c(Br)c(Br)c(Br)c21 [sulfobromophthalein]
- inhibition at 100 µM (OSTα/β [1]; [10]): 5 to 23%

Compound: O=C1[C@H](CC[C@H](O)c2ccc(F)cc2)[C@@H](c2ccc(O)cc2)N1c1ccc(F)cc1 [ezetimibe]
- Inhibition of OSTα/β-mediated DHEAS uptake (screening) (OSTα/β [1]; DHEAS 4 µM, 30 s uptake): could not be reproduced

Compound: CC[C@H](C)C(=O)O[C@H]1C[C@@H](C)C=C2C=C[C@H](C)[C@H](CC[C@@H]3C[C@@H](O)CC(=O)O3)[C@H]21 [lovastatin]
- inhibition at 100 µM (OSTα/β [1]; [10]): ~21%

Compound: O=C(O)[C@H]1/C(=C/CO)O[C@@H]2CC(=O)N21 [clavulanic acid]
- Inhibition of OSTα/β-mediated DHEAS uptake (screening) (OSTα/β [1]; DHEAS 4 µM, 30 s uptake): decreased
- Associated cases of DILI [3]: more than 100 cases

Compound: CC(C)c1nc(N(C)S(C)(=O)=O)nc(-c2ccc(F)cc2)c1/C=C/[C@@H](O)C[C@@H](O)CC(=O)O [rosuvastatin]
- Inhibition of OSTα/β-mediated DHEAS uptake (screening) (OSTα/β [1]; DHEAS 4 µM, 30 s uptake): did not inhibit OSTα/β

Compound: C#C[C@]1(O)CC[C@H]2[C@@H]3CCc4cc(O)ccc4[C@H]3CC[C@@]21C [ethinylestradiol]
- Associated cases of DILI [3]: more than 100 cases
- Interaction with ABCB11 (ABCB11; ref Supporting Table 1): interact
- Interaction with ABCC3 (ABCC3; ref Supporting Table 1): interact

Compound: C[C@H](CCC(=O)NCCS(=O)(=O)O)[C@H]1CC[C@H]2[C@@H]3CC[C@@H]4C[C@H](OS(=O)(=O)O)CC[C@]4(C)[C@H]3CC[C@]12C [TLCAS, taurolithocholic acid sulfate]
- Stimulation of OSTα/β-mediated TCA uptake (OSTα/β [7]; Method 2 (co-incubation only), 100 µM, TCA 20 µM): ~ 25%
- Inhibition of OSTα/β-mediated TCA uptake (statistical significance) (OSTα/β [7]; inhibitor 100 µM, TCA 20 µM): did not reach statistical significance
- Inhibition of OSTα/β-mediated TCA and ES uptake (OSTα/β [8]): inhibited

Compound: COc1ccc2c(c1)c(CC(=O)O)c(C)n2C(=O)c1ccc(Cl)cc1 [indomethacin]
- inhibition at 100 µM (OSTα/β [1]; [11]): ~20%
- inhibition at 100 µM (OSTα/β [1]; [10]): 5 to 23%
- Inhibition of OSTα/β-mediated DHEAS uptake (OSTα/β [1]; [12]): no inhibition
- Inhibition of OSTα/β-mediated TCA uptake (statistical significance) (OSTα/β [7]; inhibitor 100 µM, TCA 20 µM): did not reach statistical significance

Compound: C[C@H](CCC(=O)NCC(=O)O)[C@H]1CC[C@H]2[C@@H]3[C@H](O)C[C@@H]4C[C@H](O)CC[C@]4(C)[C@H]3CC[C@]12C [glycochenodeoxycholate]
- Maximal inhibition of OSTα/β-mediated DHEAS uptake (OSTα/β [1]; DHEAS 4 µM): less than 50%

Compound: CCc1c(Cl)c(O)c(Cl)c(O)c1C(=O)O[C@H]1[C@H](O)[C@H](OC)[C@H](OC/C2=C\C=C\C[C@H](O)/C(C)=C/[C@H](CC)[C@@H](O[C@@H]3OC(C)(C)[C@@H](OC(=O)C(C)C)[C@H](O)[C@@H]3O)/C(C)=C/C(C)=C/C[C@@H]([C@@H](C)O)OC2=O)O[C@@H]1C [fidaxomicin]
- inhibition at 100 µM (OSTα/β [1]; [10]): 71%
- Inhibition of OSTα/β-mediated DHEAS uptake (OSTα/β [1]; Method 1 (10 min preincubation only), 30 s uptake): inhibited DHEAS uptake
- Inhibition of OSTα/β-mediated TCA uptake (OSTα/β [7]; Method 2 (co-incubation only), inhibitor 100 µM, TCA 20 µM, 30 s uptake): > 70%
- inhibition at 100 µM (OSTα/β [7]): > 70%
- inhibition at 100 µM (OSTα/β [9]): 90%
- Inhibition of OSTα/β-mediated TCA transport (OSTα/β [5]): inhibited
- Inhibition of ABCC3 (ABCC3): inhibit

The next lines start with results.

- inhibition at 100 µM (OSTα/β [1]; [10]): ~19%
Compound: C[C@H]1c2cccc(O)c2C(=O)C2=C(O)[C@]3(O)C(=O)C(C(N)=O)=C(O)[C@@H](N(C)C)[C@@H]3[C@@H](O)[C@@H]21 [doxycycline]

- Inhibition of OSTα/β-mediated DHEAS uptake (screening) (OSTα/β [1]; DHEAS 4 µM, 30 s uptake): decreased
Compound: CC1(C)S[C@@H]2[C@H](NC(=O)[C@H](N)c3ccc(O)cc3)C(=O)N2[C@H]1C(=O)O [amoxicillin]
- Associated cases of DILI [3]: more than 100 cases

- inhibition at 100 µM (OSTα/β [1]; [10]): 35 to 64%
- Maximal inhibition of OSTα/β-mediated DHEAS uptake (OSTα/β [1]; DHEAS 4 µM): less than 50%
Compound: C#C[C@]1(OC(C)=O)CC[C@H]2[C@@H]3CCC4=CC(=NO)CC[C@@H]4[C@H]3CC[C@@]21CC (mixture of isomers) [norgestimate]
- Associated cases of DILI [3]: more than 100 cases

- inhibition at 100 µM (OSTα/β [1]; [10]): 5 to 23%
Compound: CCCN(CCC)S(=O)(=O)c1ccc(C(=O)O)cc1 [probenecid]

- Concentration in hepatocyte cultures, molar equivalent [4]: ~ 190 µM
Compound: Cc1c(C)c2c(c(C)c1OS(=O)(=O)O)CCC(C)(COc1ccc(CC3SC(=O)NC3=O)cc1)O2 (centres unmarked) [troglitazone sulfate]
- Inhibition of OSTα/β-mediated TCA transport (OSTα/β [5]): inhibited
- Concentration in hepatocyte cultures [6]: ~ 700 ng/mg protein
- Inhibition of ABCB11 (ABCB11): inhibits
- Inhibition of ABCC4 (ABCC4): inhibits

- Inhibition of OSTα/β-mediated DHEAS uptake (screening) (OSTα/β [1]; DHEAS 4 µM, 30 s uptake): novel OSTα/β inhibitors
Compound: Cc1c(C)c2c(c(C)c1O)CCC(C)(COc1ccc(CC3SC(=O)NC3=O)cc1)O2 (centres unmarked) [troglitazone]
- IC50 for inhibition of OSTα/β-mediated DHEAS uptake (OSTα/β [1]; Method 1, 0.125–200 µM inhibitor, DHEAS 4 µM, 30 s uptake): did not yield a consistent inhibition curve

- inhibition at 100 µM (OSTα/β [1]; [11]): ~20%
- Inhibition of OSTα/β-mediated DHEAS uptake (OSTα/β [1]; [12]): no inhibition
- inhibition at 100 µM (OSTα/β [7]): ~20%
Compound: CC(=O)S[C@@H]1CC2=CC(=O)CC[C@]2(C)[C@H]2CC[C@@]3(C)[C@@H](CC[C@@]34CCC(=O)O4)[C@H]12 [spironolactone]
- Inhibition of OSTα/β-mediated TCA and ES uptake (OSTα/β [8]): inhibited
